Experiments:
Type in all cases: cell-based, human
[1] = system: DU145 cell line; assay: Apoptotic indices by DAPI staining, confocal microscopy; settings: DU145, 24, 48 and 72 h
Method: (§1) The Annexin-V-FLUOS Staining Kit (Roche Diagnostics GmbH, Mannheim, Germany) was used for the detection and quantification of the apoptotic cells. This kit uses a dual-staining protocol in which the apoptotic cells are stained with annexin-V (green fluorescence) and the necrotic cells are stained with propidium iodide (PI, red fluorescence). Briefly, DU145 cell line was grown at a density of 1×10^6 cells in triplicate culture plates and then treated with D-allose (0, 20 and 40 mM) for 48 and 72 h. The cells were treated with trypsin and harvested with PBS and processed for labeling with annexin-V and PI by the use of the kit according to the manufacturer's protocol. The fluorescence was measured by flow cytometric analysis, performed on a FACSCalibur (Becton Dickinson, San Jose, Calif., USA) using 488 nm excitation and a 515 nm band pass filter for fluorescein detection and a filter [600 nm for PI detection (FL1: Annexin-V-FLUOS; FL2: PI). Further, apoptotic indices were measured by analysis of fragmented or scattered nuclei and condensed chromosome as the stringent morphological criteria of apoptosis, detectable by confocal microscopy on cells stained with DNA-intercalating dye […] (DAPI). For this purpose, DU145 and PrEC cell lines were exposed to 0, 20 and 40 mM of D-allose for up to 72 h, stained with DAPI (1 μg/ml in methanol), mounted with Prolong Antifade reagent (Molecular Probes, Eugene, Oreg., USA), and images were acquired by use of a confocal laser scanning microscope (Fluoview FV 1000, Olympus, Japan). The numbers of apoptotic nuclei per 100 cells were counted from the five high power fields/slide and apoptotic indices were expressed as a percentage of the untreated controls in each cell line, considering the value as 100%. DU145 cell line was also treated with 0-40 mM of D-glucose for determination of apoptotic indices as mentioned above.

[2] = system: PrEC cell line; assay: as above; settings: PrEC, 24, 48 and 72 h
Method: as §1

[3] = system: DU145 cell line; assay: Mitochondrial Δψm by JC-1, flow cytometry; settings: DU145, 20 and 40 mM, 24, 48 and 72 h
Method: Mitochondrial Δψm was measured by JC-1 mitochondrial membrane potential detection kit (Biotium Inc, Hayward, Calif., USA) according to the manufacturer's protocol. Briefly, DU145 cell line (1×10^6 cells in triplicate culture plates) was harvested after treatments with 0, 20 and 40 mM of D-allose for up to 72 h as mentioned above, stained with […] JC-1 reagent at 37° C. for 15 min and resuspended twice in 1× assay buffer. Changes in mitochondrial Δψm were measured at the single cell level by FACSCalibur flow cytometer (Becton Dickinson, San Jose, Calif., USA) under the following conditions: FL1, 511 volts; FL2, 389 volts; FL1-10.5% FL2; FL2-25.9% FL1; 488 nm argon excitation laser and 585 nm band pass filter. In total 10,000 cells were acquired for analysis by CellQuest software, version 3.0 (Becton Dickinson, San Jose, Calif., USA), and the quantification of cells with low mitochondrial Δψm as the percentage of total cell population was performed. Further, the DU145 cell line was seeded onto chamber slides with 1×10^5 cells/chamber in 500 μl of complete culture medium containing 0, 20 and 40 mM of D-allose for 72 h, permeabilized with 0.1% Triton, stained with 1×JC-1 reagent in dark, mounted with Prolong Antifade reagent (Molecular Probes, Eugene, Oreg., USA), and images (JC-1, green) were acquired by use of a fluorescence microscope (Axioplan 2, Carl Zeiss, Germany).

[4] = system: DU145 cell line; assay: Fura-2 measurement of [Ca^2+]c; settings: DU145, 20 and 40 mM, 48 h
Method: [Ca^2+]c was measured by fluorescent indicator fura-2 acetoxymethyl ester (fura-2 AM) as described in Malgaroli A et al., J. Cell. Biol. 105:2145-2155, 1987. Briefly, DU145 cell line (1×10^6 cells in triplicate culture plates) was exposed to 0, 20 and 40 mM of D-allose for 48 and 72 h and then incubated with serum-free culture media containing 5 μM of fura-2AM at 37° C. in dark for another 1 h. The cells were washed twice with Locke's solution (pH 7.3) and the fura-2 fluorescence signals of [Ca^2+]c were measured by luminescence spectrophotometer (LS 50B, Perkin Elmer, Boston, Mass., USA) using 340 and 380 nm as excitation wavelengths (λex), and 510 nm as emission wavelength (λem). […] The slides were mounted with Prolong Antifade reagent (Molecular Probes, Eugene, Oreg., USA), and images (JC-1, green) were acquired by use of a fluorescence microscope (Axioplan 2, Carl Zeiss, Germany).

Structure (SMILES): O=C[C@H](O)[C@H](O)[C@H](O)[C@H](O)CO [D-allose]
- programmed cell death (apoptotic indices, DAPI staining) [1]: significant dose- and time-dependent programmed cell death
- programmed cell death (apoptotic indices, DAPI staining) [2]: very negligible effect
- cells with low mitochondrial Δψm [3]: appearance of a remarkable subpopulation of cells with low mitochondrial Δψm in a dose- and time-dependent manner
- [Ca^2+]c [4]: remarkably elevated

Source: patent US20110071094A1, “(D)-ALLOSE INDUCING PROGRAMMED CELL DEATH IN HORMONE REFRACTORY PROSTATE CANCER LINES” (INDUSTRY-ACADEMIC COOPERATION FOUDATION, GYEONGSANG …, priority 2008, published 2011)
